# Read-outs that look alike come from different tables or passages of the source. Starred links: 1 amine or outer side, 2 acyl side, 3 side chain; linkers in the order of their positions; H or OH if unused. Non-standard residues stand in square brackets, D forms with d. Residues, ends and D or L forms follow the SMILES beside them. Groups on a side chain read outwards from the residue. *: point of attachment. C18 diacid = O=C(O)CCCCCCCCCCCCCCCCC(=O)*; γGlu = O=C(O)[C@H](CCC(=O)[*:2])N[*:1]; AEEA = NCCOCCOCC(=O)O; Aib = CC(C)(N)C(=O)O
# What was measured:
# human CRF2α receptor = target: T1, human CRF2α receptor (Homo sapiens, UniProt Q13324); experiment: cAMP agonism at human CRF2 α receptor in TeloHEAC cells (Example 7); assay type: cell-based; conditions: cAMP HTRF, TeloHEAC cells stably expressing human CRF2 α
# T1 construct: expressed in transfected cells; host or cells: TeloHEAC
# T1 sequence (Q13324 1-411): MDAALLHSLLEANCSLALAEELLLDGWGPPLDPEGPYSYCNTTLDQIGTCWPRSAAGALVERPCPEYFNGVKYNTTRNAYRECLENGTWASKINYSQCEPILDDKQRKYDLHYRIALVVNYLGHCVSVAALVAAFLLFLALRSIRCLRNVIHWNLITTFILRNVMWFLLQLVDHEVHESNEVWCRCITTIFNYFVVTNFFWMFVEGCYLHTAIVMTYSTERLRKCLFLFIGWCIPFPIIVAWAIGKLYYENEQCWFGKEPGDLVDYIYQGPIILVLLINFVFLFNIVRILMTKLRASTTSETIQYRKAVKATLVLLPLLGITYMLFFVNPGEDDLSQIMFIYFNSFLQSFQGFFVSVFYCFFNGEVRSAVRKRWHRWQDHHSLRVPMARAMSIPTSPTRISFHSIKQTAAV
# Procedure, shortened: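 HTRF ratio 665/620 nm, read 1 h after lysis reagents, reports cAMP. Cells: thawed stocks, 2000/well, 30 min RT with compound in HBSS, 20 mM HEPES, 0 or 0.1% HSA, 2 mM IBMX. Activity normalised to UCN2 1000 nM = 100%; EC50 from half-maximal activation.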
# rat CRF2R α receptor = experiment: cAMP agonism at rat CRF2R α receptor in A7R5 rat aortic smooth muscle cells (Example 8); assay type: cell-based; conditions: cAMP HTRF, A7R5 rat aortic smooth muscle cell line, 0% HSA
# Procedure, shortened: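 Thawed cryopreserved A7R5 cells in HBSS/20 mM HEPES (0 or 0.1% HSA) with 2 mM IBMX, 2000 cells/well, were exposed to compound for 30 min at room temperature. cAMP was read by HTRF (665/620 nm ratio) after 1 h with lysis reagents. Activity was normalised to 1000 nM urocortin 2 as 100%, and EC50 was taken as the concentration giving 50% of maximal activation.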
# [1] = Solubility in buffer systems by UPLC-UV (Example 13); assay type: physicochemical
# Procedure, shortened: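 The supernatant was diluted 1:10 and quantified by UPLC-UV peak area against a reference standard curve, correcting for sequence-based extinction coefficients.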
# [2] = Chemical stability, purity loss by UPLC-UV after 28 days at 40° C. vs 5° C., pH 4.5 acetate buffer (Example 12); assay type: physicochemical; conditions: 28 days 40° C. vs 5° C.; pH 4.5, 20 mM acetate buffer; 300 μM
# Method: The chemical stability of the compounds was assessed by storing the compounds under various conditions and then determining the loss of purity by UPLC-UV.
# Prior to measuring the chemical stability of a batch of test compound, the purity of the compound was determined through UPLC/MS. For stability testing the target concentration was 300 μM pure compound. Therefore, solutions from solid samples were prepared in a pH 4.5, 20 mM acetate buffer system with a concentration of 300 μM compound based on the previously determined % purity:
# At the starting point, UPLC-UV was performed by injection of 2 μl of the undiluted sample. Aliquots were then stored for 28 days at temperatures of 5 and 40° C. […] Then 2 μl samples of the undiluted supernatant were analysed with UPLC-UV. The chemical stability was calculated by the equation: [(purity after 28 days at 5° C.)−(purity after 28 days at 40° C.)]/(purity after 28 days at 5° C.)]×100%. The purity was calculated as: [(peak area compound)/(total peak area)]×100%.
# [3] = Physical stability, dynamic light scattering assay (Example 15); assay type: physicochemical; conditions: Buffer A (100 mM acetate, pH 4.5); for Apparent Rh [nm] 4 weeks / Scattering Intensity (I) [%] 4 weeks: 4 weeks at 40° C.
# Method: The physical stability of the compounds was also assessed using a dynamic light scattering assay.
# In the present study, the physical stability of test compounds was assessed by determining the apparent hydrodynamic radius (Rh), the scattering intensity (I) and mass contribution (M) after synthesis (0 weeks) and after storage for 4 weeks at 40° C.
# For each solution of test compound, the hydrodynamic radius Rh and the diffusion constant D (related via the Stokes-Einstein equation) were determined as an average over triplicates. Both parameters were determined at different compound concentrations (e.g., Rh1 and D1: 1 mg/ml and Rh5 and D5: 5 mg/ml, Rh10 and D10: 10 mg/mL) in the same buffer system. The difference of these parameters between low and high peptide concentration is a surrogate for the DLS interaction parameter kD. […] In addition, the hydrodynamic radius Rh and the corresponding Scattering Intensity (%) were determined as an average over duplicates. The target concentration was 300 μM. Therefore, solutions from solid samples were prepared in a buffer system with a concentration of 300 μM compound based on the previously determined % purity.
# DLS measurements were performed on a DynaPro Plate Reader I (Wyatt Technology, Santa Barbara, CA, US) with an 837 nm laser light source at a scattering angle of 150°. The data were collected and processed with Dynamics V 7.8.1.3 or 7.8.2.18 software provided by Wyatt Technology.
# Hydrodynamic radii were determined with non-negatively constrained least squares (NNLS) methods using DYNALS algorithms with regularization fit. […] Samples were tempered over 1 hour at +25° C. and visually inspected before analysis.
# Samples were mixed with the aid of a pipet tip. Measurements were performed in 5 replicates. […] The plate was centrifuged for 2 minutes at 600 rcf. After removing the sealing, the samples were measured at +25° C.
# CRF1R receptor = target: T2, CRF1R receptor (Homo sapiens, UniProt P34998); experiment: cAMP activity at anti-target CRF1R, CRF1R-overexpression CHO cell line (Example 9); assay type: cell-based; conditions: CRF1R-overexpression CHO cell line
# T2 construct: host or cells: CHO-K1 clone 2
# T2 sequence (P34998 24-415): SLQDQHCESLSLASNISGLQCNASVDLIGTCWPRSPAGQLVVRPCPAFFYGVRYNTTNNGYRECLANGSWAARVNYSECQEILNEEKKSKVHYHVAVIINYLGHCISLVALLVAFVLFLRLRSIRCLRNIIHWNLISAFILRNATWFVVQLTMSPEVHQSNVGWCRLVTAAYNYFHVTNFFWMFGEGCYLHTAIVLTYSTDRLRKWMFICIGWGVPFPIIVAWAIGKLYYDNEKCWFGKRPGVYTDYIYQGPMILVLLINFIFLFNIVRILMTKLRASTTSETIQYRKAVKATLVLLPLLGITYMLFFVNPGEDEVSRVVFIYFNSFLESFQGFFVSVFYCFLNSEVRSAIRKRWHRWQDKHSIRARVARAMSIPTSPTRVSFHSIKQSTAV
# Procedure, shortened: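 cAMP accumulation was read by HTRF after 30 min at room temperature of compound treatment. Cells were cryopreserved CHO cells overexpressing CRF1R, plated at 2000/well in IBMX (2 mM)-containing HBSS/HEPES buffer with 0 or 0.1% HSA. Activity was normalized to 1000 nM UCN2 as 100%.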
# [4] = 0% HSA, read-out: EC50 [nM], 0% HSA
# [5] = pH 7.4, Solubility in Buffer C [mg/ml]
EC50 (human CRF2α receptor; [4]) [nM],EC50 (rat CRF2R α receptor) [nM],"solubility at 1 h [1, 5] [µg/mL]",Relative purity loss [%] [2] [%],Apparent Rh [nm] 0 weeks [3] [nm],Scattering Intensity (I) [%] 0 weeks [3] [%],Apparent Rh [nm] 4 weeks [3] [nm],Scattering Intensity (I) [%] 4 weeks [3] [%],"EC50 (human CRF2α receptor; 0.1% HSA, read-out: EC50 [nM], 0.1% HSA) [nM]","solubility at 1 h ([1]; pH 4.5, Solubility in Buffer A [mg/ml]) [µg/mL]","solubility at 1 h ([1]; pH 4.5, Solubility in Buffer B [mg/ml]) [µg/mL]",EC50 (CRF1R receptor; 0% HSA) [nM],Emax (CRF1R receptor; read-out: Emax (%)) [%],SMILES
1.45,13.3,> 9700,3.65,1.42 ± 0.08,88 ± 8,1.48 ± 0.11,98 ± 2,,,,,,CC[C@H](C)[C@H](N)C(=O)N[C@H](C(=O)N[C@@H](CC(C)C)C(=O)N[C@@H](CO)C(=O)N[C@@H](CC(C)C)C(=O)N[C@@H](CC(=O)O)C(=O)N[C@@H](C(=O)N1CCC[C@H]1C(=O)N[C@H](C(=O)N[C@@H](CCCCN)C(=O)N[C@@H](CC(C)C)C(=O)N[C@@H](CCCCNC(=O)COCCOCCNC(=O)COCCOCCNC(=O)CC[C@H](NC(=O)CCCCCCCCCCCCCCCCC(=O)O)C(=O)O)C(=O)N[C@@H](CCC(N)=O)C(=O)N[C@@H](CCCCN)C(=O)N[C@@H](CC(C)C)C(=O)N[C@@H](CC(C)C)C(=O)N[C@@H](CCCCN)C(=O)N[C@@H](CCC(N)=O)C(=O)N[C@@H](CCC(=O)O)C(=O)N[C@@H](CCCNC(=N)N)C(=O)N[C@@H](CCC(N)=O)C(=O)N[C@@H](CCCNC(=N)N)C(=O)N[C@@H](CCCCN)C(=O)NC(C)(C)C(=O)N[C@@H](CCCNC(=N)N)C(=O)N[C@@H](CCC(=O)O)C(=O)N[C@@H](CCC(N)=O)C(=O)N[C@@H](C)C(=O)N[C@@H](CCC(=O)O)C(=O)N[C@@H](CCCCN)C(=O)N[C@@H](CC(N)=O)C(=O)N[C@@H](CCCCN)C(=O)N[C@@H](CCCNC(=N)N)C(=O)N[C@H](C(=O)N[C@@H](CC(C)C)C(=O)N[C@@H](CCC(=O)O)C(=O)N[C@@H](CCCNC(=N)N)C(=O)N[C@H](C(N)=O)C(C)C)[C@@H](C)CC)[C@@H](C)O)C(C)C)C(C)C [compound 36] (H-IVLSLD[dV]PTKLK([AEEA-AEEA-γGlu-C18 diacid])QKLLKQERQRK[Aib]REQAEKNKRILERV-NH2; N-terminus assumed)
0.06,0.26,8200,2.85,2.75 ± 0.19,86 ± 4,2.82 ± 0.11,84 ± 1,3.12,> 8600,> 8700,> 1000,4.38,CC[C@H](C)[C@H](N)C(=O)N[C@H](C(=O)N[C@@H](CC(C)C)C(=O)N[C@@H](CO)C(=O)N[C@@H](CC(C)C)C(=O)N[C@@H](CC(=O)O)C(=O)N[C@@H](C(=O)N1CCC[C@H]1C(=O)N[C@H](C(=O)N[C@@H](CCCCN)C(=O)N[C@@H](CC(C)C)C(=O)N[C@@H](CCCCNC(=O)COCCOCCNC(=O)COCCOCCNC(=O)CC[C@H](NC(=O)CCCCCCCCCCCCCCCCC(=O)O)C(=O)O)C(=O)N[C@@H](CCC(N)=O)C(=O)N[C@H](C(=O)N[C@@H](CC(C)C)C(=O)N[C@@H](CC(C)C)C(=O)N[C@@H](CCCCN)C(=O)N[C@@H](CCC(N)=O)C(=O)N[C@@H](CCC(=O)O)C(=O)N[C@@H](CCCNC(=N)N)C(=O)N[C@@H](CCC(N)=O)C(=O)N[C@@H](CCCCN)C(=O)N[C@@H](CCCCN)C(=O)N[C@@H](CCC(N)=O)C(=O)N[C@@H](CCCNC(=N)N)C(=O)N[C@@H](CCC(=O)O)C(=O)N[C@@H](CCCCN)C(=O)N[C@@H](C)C(=O)N[C@@H](CCC(=O)O)C(=O)N[C@@H](CCCCN)C(=O)N[C@@H](CC(N)=O)C(=O)N[C@@H](CCCCN)C(=O)N[C@@H](CCC(N)=O)C(=O)N[C@H](C(=O)N[C@@H](CC(C)C)C(=O)N[C@@H](C)C(=O)N[C@@H](CCC(N)=O)C(=O)N[C@H](C(N)=O)C(C)C)[C@@H](C)CC)[C@@H](C)CC)[C@@H](C)CC)C(C)C)C(C)C [compound 138] (H-IVLSLD[dV]PIKLK([AEEA-AEEA-γGlu-C18 diacid])QILLKQERQKKQREKAEKNKQILAQV-NH2; N-terminus assumed)

# — patent US12679878B2, “CRF2 receptor agonists and their use in therapy” (SANOFI, priority 2020, dated 2026)
